The target of one experiment is T1, α1 GlyR (homomeric) (Rattus norvegicus, UniProt Q546L7).
T1 sequence (Q546L7 29-449): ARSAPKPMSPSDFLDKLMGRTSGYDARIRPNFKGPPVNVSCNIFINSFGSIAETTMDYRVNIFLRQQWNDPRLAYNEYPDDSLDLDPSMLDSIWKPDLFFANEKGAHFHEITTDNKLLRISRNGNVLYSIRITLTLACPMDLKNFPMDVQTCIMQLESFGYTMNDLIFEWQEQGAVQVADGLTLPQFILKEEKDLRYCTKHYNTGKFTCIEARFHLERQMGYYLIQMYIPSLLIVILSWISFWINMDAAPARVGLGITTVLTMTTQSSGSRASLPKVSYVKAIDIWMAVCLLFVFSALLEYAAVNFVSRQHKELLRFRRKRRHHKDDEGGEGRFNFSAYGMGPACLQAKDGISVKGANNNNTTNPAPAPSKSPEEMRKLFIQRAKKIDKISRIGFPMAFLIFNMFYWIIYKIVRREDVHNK
Put plainly: whole-cell patch clamp, direct activation. To be noted: no glycine added; agonist; residual glycine not excluded. Type of experiment: cell-based.

For a further experiment, the target named is T2, α3 GlyR (homomeric) (Rattus norvegicus, UniProt P24524).
T2 sequence (P24524 34-464): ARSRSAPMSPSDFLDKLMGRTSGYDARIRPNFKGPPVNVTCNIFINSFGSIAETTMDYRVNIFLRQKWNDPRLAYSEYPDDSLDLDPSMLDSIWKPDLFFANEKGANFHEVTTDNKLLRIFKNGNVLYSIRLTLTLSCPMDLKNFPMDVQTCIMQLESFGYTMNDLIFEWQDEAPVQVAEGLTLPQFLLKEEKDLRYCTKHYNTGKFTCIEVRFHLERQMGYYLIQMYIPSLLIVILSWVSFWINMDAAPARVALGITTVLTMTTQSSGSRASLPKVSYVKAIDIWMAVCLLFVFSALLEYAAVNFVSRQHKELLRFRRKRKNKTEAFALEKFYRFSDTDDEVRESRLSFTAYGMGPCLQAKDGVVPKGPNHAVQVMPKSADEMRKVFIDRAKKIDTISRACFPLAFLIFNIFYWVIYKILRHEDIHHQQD
The experiment is described as follows: whole-cell patch clamp, direct activation. The class given is cell-based. The note with it: no glycine added; agonist; residual glycine not excluded.

With AM-1488, the “% of maximal glycine current at 100 μM” value on α1 GlyR (homomeric) was over 20%; at α3 GlyR (homomeric) it was ~ 15%.

Source of the values: paper PMC11828983 (Scientific Reports, 2025).
